Source: ChEMBL document CHEMBL5036312, “From the Design to the In Vivo Evaluation of Benzohomoadamantane-Derived Soluble Epoxide Hydrolase Inhibitors for the Treatment of Acute Pancreatitis” (J Med Chem, 2021)
Calls of active or inactive are those of the source. The rule behind the calls is not given here.

Key:
[1] = tested on: Mus musculus; assay: Anti-inflammatory activity against overnight fasted cerulein-induced acute pancreatitis C57BL/6 mouse model assessed as reduction in parenchymal atrophy at 0.1 to 0.3 mg/kg, ip dosed 14 hrs after cerulein injection and measured 10 hrs after compound administration; format: functional, organism-based; settings: dose 0.1-0.3 mg/kg
[2] = Toxicity in overnight fasted C57BL/6 mouse model of cerulein-induced acute pancreatitis assessed as increase in body weight at 0.1 mg/kg, ip dosed 14 hrs after cerulein injection and measured 10 hrs after compound administration; format: organism-based; settings: in vivo
[3] = Drug uptake in overnight fasted pancreas of cerulein-induced acute pancreatitis C57BL/6 mouse model at 0.1 mg/kg, ip dosed 14 hrs after cerulein injection and measured 10 hrs after compound administration; format: ADME, organism-based; settings: in vivo
[4] = tested on: Mus musculus; assay: Anti-inflammatory activity against overnight fasted cerulein-induced acute pancreatitis C57BL/6 mouse model assessed as reversal of reversal of neutrophil infiltration at 0.3 mg/kg, ip dosed 14 hrs after cerulein injection and measured 10 hrs after compound administration; format: functional, organism-based
[5] = tested on: SH-SY5Y; assay: cells; settings: Homo sapiens, 24 h, read-out: LD50
Description: Cytotoxicity against human SH-SY5Y cells assessed as lethal dose measured after 24 hrs by propidium iodide staining based fluorescent assay

[6] = tested on: Mus musculus; assay: Anti-inflammatory activity against overnight fasted cerulein-induced acute pancreatitis C57BL/6 mouse model assessed as reduction in inflammatory cells at 0.1 to 0.3 mg/kg, ip dosed 14 hrs after cerulein injection and measured 10 hrs after compound administration; format: functional, organism-based; settings: dose 0.1-0.3 mg/kg
[7] = Toxicity in overnight fasted C57BL/6 mouse model of cerulein-induced acute pancreatitis assessed as reversal of edema at 0.3 mg/kg, ip dosed 14 hrs after cerulein injection and measured 10 hrs after compound administration; format: organism-based; settings: in vivo
[8] = Toxicity in overnight fasted C57BL/6 mouse model of cerulein-induced acute pancreatitis assessed as increase in body weight at 0.3 mg/kg, ip dosed 14 hrs after cerulein injection and measured 10 hrs after compound administration; format: organism-based; settings: in vivo
[9] = tested on: Mus musculus; assay: Anti-inflammatory activity against overnight fasted cerulein-induced acute pancreatitis C57BL/6 mouse model assessed as reduction in severity of pancreatitis at 0.1 to 0.3 mg/kg, ip dosed 14 hrs after cerulein injection and measured 10 hrs after compound administration; format: functional, organism-based; settings: dose 0.1-0.3 mg/kg
[10] = tested on: Mus musculus; assay: Anti-inflammatory activity against overnight fasted cerulein-induced acute pancreatitis C57BL/6 mouse model assessed as reversal of pancreatic damage at 0.3 mg/kg, ip dosed 14 hrs after cerulein injection and measured 10 hrs after compound administration; format: functional, organism-based

Compound	Activity [1]	Activity [2]	Drug uptake [3]	Activity [4]	CC50 [5] [µM]	Activity [6]	Activity [7]	Activity [8]	Activity [9]	Activity [10]
O=C(NC12CC3CC(Cl)(CC(C1)c1ccccc13)C2)N[C@H]1CC[C@H](Oc2ccc(C(=O)O)cc2)CC1	Active	Toxic	Not Active	Active	> 100	Active	Non-Toxic	Toxic	Active	Active
CC12CC3CC(NC(=O)N[C@H]4CC[C@H](Oc5ccc(C(=O)O)cc5)CC4)(CC(C1)c1ccccc13)C2	–	–	–	–	> 100	–	–	–	–	–
O=C(NC12CC3CC(F)(CC(C1)c1ccccc13)C2)N[C@H]1CC[C@H](Oc2ccc(C(=O)O)cc2)CC1	–	–	–	–	> 100	–	–	–	–	–
